In patent EP0181109B1, “N6-benzopyrano- and benzothiopyrano-adenosines” (WARNER-LAMBERT COMPANY, priority 1984, dated 1986):

Assays:
[1] = target: T1, adenosine A1 receptor (Rattus norvegicus, UniProt P25099); assay: Adenosine Receptor Binding - A1 Receptor Affinity (RBA 1), [3H]-CHA displacement; settings: rat whole brain membranes, 1.0 nM [3H]-CHA, one hour at 25°C
T1 construct: Whole brain minus cerebellum and brainstem from male Long Evans rats (150-200 g) was homogenized; from tissue; host or cells: rat whole brain minus cerebellum and brainstem (membrane homogenate)
T1 sequence (P25099 1-326): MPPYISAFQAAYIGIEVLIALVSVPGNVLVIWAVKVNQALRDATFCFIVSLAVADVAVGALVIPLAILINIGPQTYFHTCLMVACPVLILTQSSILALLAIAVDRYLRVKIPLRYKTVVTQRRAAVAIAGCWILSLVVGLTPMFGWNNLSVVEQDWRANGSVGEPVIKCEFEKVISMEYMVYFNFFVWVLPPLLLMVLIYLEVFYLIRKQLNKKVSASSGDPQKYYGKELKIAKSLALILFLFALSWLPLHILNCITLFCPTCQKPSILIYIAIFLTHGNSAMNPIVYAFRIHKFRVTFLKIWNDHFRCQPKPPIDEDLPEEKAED
Description: Whole brain minus cerebellum and brainstem from male Long Evans rats (150-200 g) was homogenized in 30 volumes of ice-cold 0.05 M Tris-HCI buffer pH 7.7 using a Brinkman Polytron PT-10, (setting number 6 for 20 seconds) and centrifuged for ten minutes at 20,000 x g (Sorvall RC-2), 4°C. The supernatant was discarded, and the pellet was resuspended and centrifuged as before. The pellet was resuspended in 20 ml Tris-HCI buffer containing two International Units/ml of adenosine deaminase (Sigma Type III from calf intestinal mucosa), incubated at 37°C for 30 minutes, then subsequently at 0°C for ten minutes. The homogenate was again centrifuged, and the final pellet was resuspended in ice-cold 0.05 M Tris-HCI buffer pH 7.7 to a concentration of 20 mg/ml original wet tissue weight and used immediately.
Tissue homogenate (10 mg/ml) was incubated in 0.05 M Tris-HCI buffer pH 7.7 containing 1.0 nM [^3H]-N^6-cyclohexyladenosine (^3H]-CHA) with or without test agents in triplicate for one hour at 25°C. Incubation volume was 2 ml. Unbound [^3H]-CHA was separated by rapid filtration under reduced pressure through Whatman glass fiber (GF/B) filters. The filters were rinsed three times with 5 ml of ice cold 0.05 M Tris-HCI buffer pH 7.7. The radio-labele ligand retained on the filter was measured by liquid scintillation spectrophotometry after shaking the filters for one hour or longer on a mechanical shaker in 10 ml of Beckman Ready-Solv HP scintillation cocktail.
Nonspecific binding was defined as the binding which occurred in the presence of 1 mM theophylline. The concentration of test agent which inhibited 50% of the specific binding (IC50) was determined by nonlinear computer curve fit. The Scatchard plot was calculated by linear regression of the line obtained by plotting the amount of radioligand bound (pmoles/gram of tissue) versus
• bound radioligand • free radioligand Since the amount of radioligand bound was a small fraction of the total amount added, free radioligand was defined as the concentration (nM) of radioligand added to the incubation mixture. The Hill coefficient was calculated by linear regression of the line obtained by plotting the log of the bound radioligand vs the log of the • bound radioligand • Bmax - bound radioligand • The maximal number of binding sites (Bmax) was calculated from the Scatchard plot.

[2] = target: T2, adenosine A2 receptor (Rattus norvegicus, UniProt P30543); assay: Adenosine Receptor Binding - A2 Receptor Affinity (RBA2), [3H]NECA displacement in striatal membranes; settings: 4 nM [3H]NECA, 50 nM N6-cyclopentyladenosine, 60 minutes at 25°C, read-out: RBA-2 (IC50, A2 receptor affinity)
T2 construct: Brains were thawed and then kept on ice while the striata were dissected out; tissue Pel-Freez (Rogers, Arkansas); host or cells: rat striatum (membranes)
Description: Brains from 200-500 g mixed sex Sprague-Dawley rats were purchased from Pel-Freez (Rogers, Arkansas). Fresh brains from male Long-Evans hooded rats (Blue Spruce Farms, Altamont, NY) gave essentially identical results. Brains were thawed and then kept on ice while the striata were dissected out. Striata were disrupted in 10 vol of ice-cold 50 mM Tris·HCl (pH 7.7 at 25°C, pH 8.26 at 5°C) (Tris) for 30 seconds in a Polytron PT―10 (Brinkmann) at setting 5. The suspension was centrifuged at 50,000 xg for ten minutes, the supernatant discarded, the pellet resuspended in 10 vol ice-cold Tris as above, recentrifuged, resuspended at 1 g/5 ml, and stored in plastic vials at -70°C (stable for at least six months). When needed, tissue was thawed at room temperature, disrupted in a Polytron, and kept on ice until used.
All incubations were for 60 minutes at 25°C in 12 x 75 mm glass tubes containing 1 ml Tris with 5 mg original tissue weight of rat weight of rat striatal membranes, 4 nM [^3H]-N-ethyl adenosine-5'-carboxamide ([^3H]NECA), 50 nM N^s-cyclopentyladenosine (to eliminate A1 receptor binding), 10 mM MgCI2, 0.1 units/ml of adenosine deaminase and 1% dimethylsulfoxide. N^6-Cyclopentyladenosine was dissolved at 10 mM in 0.02 N HCI and diluted in Tris. Stock solutions and dilutions of N^6-cyclopentyladenosine could be stored at -20°C for several months. Test compounds were dissolved at 10 mM in dimethylsulfoxide on the same day as the experiment, and diluted in dimethylsulfoxide to 100x the final incubation concentration. Control incubations received an equal volume (10 µl) of dimethylsulfoxide; the resulting concentration of dimethylsulfoxide had no effect on binding. [^3H]NECA was diluted to 40 nM in Tris. The membrane suspension (5 mg/0.79 ml) contained sufficient MgC12 and adenosine deaminase to give 10 mM and 0.1 units/ml, respectively, final concentration in the incubation. […] After all additions, the rack of tubes was vortexed, and the tubes were then incubated for 60 min at 25°C in a shaking water bath. The rack of tubes was vortexed an additional time halfway through the incubation.
Incubations were terminated by filtration through 2.4 cm GF/B filters under reduced pressure. Each tube was filtered as follows: the contents of the tube were poured onto the filter, 4 ml of ice-cold Tris were added to the tube and the contents poured onto the filter, and the filter was washed twice with 4 ml of ice-cold Tris. The filtration was complete in about 12 seconds. Filters were put in scintillation vials, 8 ml of Formula 947 scintillation fluid added, and the vials left overnight, shaken, and counted in a liquid scintillation counter at 40% efficiency.
Nonspecific binding was defined as binding in the presence of […] N^6-cyclopentyladenosine, and specific binding was defined as total binding minus nonspecific binding. The IC50 was calculated by weighted nonlinear least squares curve-fitting to the mass action equation. [formula] • where Y is cpm bound • T is cpm total binding without drug • S is cpm specific binding without drug • D is the concentration of drug • and K is the IC50 of the drug Weighting factors were calculated under the assumption that the standard deviation was proportional to the predicted value of Y. Nonspecific binding was treated as a very large (infinite) concentration of drug in the computer analysis.

T2 sequence (P30543 whole entry): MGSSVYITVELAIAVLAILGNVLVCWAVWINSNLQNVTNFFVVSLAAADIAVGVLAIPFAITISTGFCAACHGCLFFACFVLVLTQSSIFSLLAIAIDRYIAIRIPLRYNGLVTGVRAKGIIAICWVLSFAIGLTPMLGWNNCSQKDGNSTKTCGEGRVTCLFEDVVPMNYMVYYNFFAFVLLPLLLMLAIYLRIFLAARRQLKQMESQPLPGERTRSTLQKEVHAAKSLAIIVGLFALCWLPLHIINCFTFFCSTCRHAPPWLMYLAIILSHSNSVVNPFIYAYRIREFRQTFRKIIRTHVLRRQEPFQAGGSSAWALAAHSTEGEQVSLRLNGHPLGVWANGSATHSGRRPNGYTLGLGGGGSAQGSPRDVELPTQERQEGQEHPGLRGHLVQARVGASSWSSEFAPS

`Cc1ccc(C(C)C)c2c1CC(Nc1ncnc3c1ncn3[C@@H]1O[C@H](CO)[C@@H](O)[C@H]1O)CO2` (some centres unmarked) [Example 12, N^6-[8-lsopropyl-5-methyl-3-chromanylamino]adenosine] showed an IC50 [1] of 188 nM and an IC50 [2] of 1540 nM.
